Laboratory results published in US8993542B2, “Methods of treating viral infections” (priority 2008, dated 2015).
pIC50: −log10 of the molar value.

Assays:
HIV-1IIIB = test: Two-drug combination antiviral assay in CEM cells (CPE), MacSynergy II; assay type: cell-based; conditions: in combination with CMX157, CEM-SS cells, 95% confidence
HIV = test: microbe, parasite or virus in culture; assay type: cell-based
[1] = Human immunodeficiency virus 1, PANEL 2, WT
[2] = Human immunodeficiency virus 1, PANEL 3, 6 TAMs, no 184
[3] = Human immunodeficiency virus 1, PANEL 6, 6 TAMs + 184
[4] = Human immunodeficiency virus 1, PANEL 7, 184V
[5] = Human immunodeficiency virus 1, PANEL 9, 69ins, no 184
[6] = Human immunodeficiency virus 1, PANEL 12, 69ins + 184
[7] = Human immunodeficiency virus 1, PANEL 14, 65R, no 184
[8] = Human immunodeficiency virus 1, PANEL 15, 65R + 184V
[9] = Human immunodeficiency virus 1, PANEL 17, L74V
[10] = Human immunodeficiency virus 1, PANEL 19, L74V + M184V
[11] = Human immunodeficiency virus 1, PANEL 26, 151M, no 184
[12] = Human immunodeficiency virus 1, PANEL 28, 151M + 184
[13] = Human immunodeficiency virus 1, PANEL 29, L74V − SDM
[14] = Human immunodeficiency virus 1, PANEL 30, M184V − SDM
[15] = Human immunodeficiency virus 1, PANEL 31, K65R − SDM
[16] = Human immunodeficiency virus 1, PANEL 33, T215Y
[17] = Human immunodeficiency virus 1, PANEL 34, T215Y + M184V
[18] = Human immunodeficiency virus 1, PANEL 35, M41L + T215Y
[19] = Human immunodeficiency virus 1, PANEL 37, M41L + T215Y + M184V
[20] = Human immunodeficiency virus 1, PANEL 38, M41L + L210W + T215Y
[21] = Human immunodeficiency virus 1, PANEL 39, M41L + L210W + T215Y
[22] = Human immunodeficiency virus 1, PANEL 40, M41L + L210W + T215Y + M184V
[23] = Human immunodeficiency virus 1, PANEL 41, M41L + L210W + T215Y + M184V
[24] = Human immunodeficiency virus 1, PANEL 42, D67N + K70R
[25] = Human immunodeficiency virus 1, PANEL 44, D67N + K70R + T215F + K219E + M184V
[26] = Human immunodeficiency virus 1, PANEL 45, L210W + T215Y
[27] = Human immunodeficiency virus 1, PANEL 46, D67N + K70E
[28] = Human immunodeficiency virus 1, PANEL 47, D67N + K70E + M184V
[29] = Human immunodeficiency virus 1, PANEL 48, K70E + M184V

OC[C@@H]1CC[C@H](n2cnc3c(O)ncnc32)O1 [ddI, 2′,3′-dideoxyinosine]
Antagonism Volume, Result 1 (HIV-1IIIB): −1.01 nM^2 %, μM^2 % or nMμM %
Synergy Volume, Result 1 (HIV-1IIIB): 3.38 nM^2 %, μM^2 % or nMμM %
pIC50 (HIV; Human immunodeficiency virus 1, PANEL 1, WT): 5.26
pIC50 (HIV; [1]): 5.25
pIC50 (HIV; [2]): 5.06
pIC50 (HIV; [3]): 4.95
pIC50 (HIV; [4]): 5.12
pIC50 (HIV; [5]): 4.65
pIC50 (HIV; [6]): 4.61
pIC50 (HIV; [7]): 5.04
pIC50 (HIV; [8]): 4.84
pIC50 (HIV; [9]): 5.05
pIC50 (HIV; [10]): 4.96
pIC50 (HIV; [11]): 4.20
pIC50 (HIV; [12]): 4.24
pIC50 (HIV; [13]): 5.09
pIC50 (HIV; [14]): 5.17
pIC50 (HIV; [15]): 4.96
pIC50 (HIV; [16]): 5.20
pIC50 (HIV; [17]): 5.10
pIC50 (HIV; [18]): 5.20
pIC50 (HIV; [19]): 4.99
pIC50 (HIV; [20]): 5.12
pIC50 (HIV; [21]): 5.23
pIC50 (HIV; [22]): 5.09
pIC50 (HIV; [23]): 5.06
pIC50 (HIV; [24]): 5.18
pIC50 (HIV; [25]): 5.06
pIC50 (HIV; [26]): 5.26
pIC50 (HIV; [27]): 5.11
pIC50 (HIV; [28]): 5.14
pIC50 (HIV; [29]): 5.00
IC50 Fold Change (HIV; PANEL 1, WT): 1.01
IC50 Fold Change (HIV; PANEL 2, WT): 1.01
IC50 Fold Change (HIV; PANEL 3, 6 TAMs, no 184): 1.59
IC50 Fold Change (HIV; PANEL 6, 6 TAMs + 184): 2.06
IC50 Fold Change (HIV; PANEL 7, 184V): 1.38
IC50 Fold Change (HIV; PANEL 9, 69ins, no 184): 4.04
IC50 Fold Change (HIV; PANEL 12, 69ins + 184): 4.43
IC50 Fold Change (HIV; PANEL 14, 65R, no 184): 1.67
IC50 Fold Change (HIV; PANEL 15, 65R + 184V): 2.61
IC50 Fold Change (HIV; PANEL 17, L74V): 1.63
IC50 Fold Change (HIV; PANEL 19, L74V + M184V): 2.01
IC50 Fold Change (HIV; PANEL 26, 151M, no 184): 12.00
IC50 Fold Change (HIV; PANEL 28, 151M + 184): 11.00
IC50 Fold Change (HIV; PANEL 29, L74V − SDM): 1.48
IC50 Fold Change (HIV; PANEL 30, M184V − SDM): 1.23
IC50 Fold Change (HIV; PANEL 31, K65R − SDM): 2.00
IC50 Fold Change (HIV; PANEL 33, T215Y): 1.14
IC50 Fold Change (HIV; PANEL 34, T215Y + M184V): 1.43
IC50 Fold Change (HIV; PANEL 35, M41L + T215Y): 1.14
IC50 Fold Change (HIV; PANEL 37, M41L + T215Y + M184V): 1.84
IC50 Fold Change (HIV; PANEL 38, M41L + L210W + T215Y): 1.36
IC50 Fold Change (HIV; PANEL 39, M41L + L210W + T215Y): 1.07
IC50 Fold Change (HIV; PANEL 40, M41L + L210W + T215Y + M184V): 1.49
IC50 Fold Change (HIV; PANEL 41, M41L + L210W + T215Y + M184V): 1.57
IC50 Fold Change (HIV; PANEL 42, D67N + K70R): 1.19
IC50 Fold Change (HIV; PANEL 44, D67N + K70R + T215F + K219E + M184V): 1.57
IC50 Fold Change (HIV; PANEL 45, L210W + T215Y): 1.00
IC50 Fold Change (HIV; PANEL 46, D67N + K70E): 1.41
IC50 Fold Change (HIV; PANEL 47, D67N + K70E + M184V): 1.32
IC50 Fold Change (HIV; PANEL 48, K70E + M184V): 1.80

Cc1cn([C@H]2C[C@H](N=[N+]=[N-])[C@@H](CO)O2)c(=O)[nH]c1=O [ZDV, 3′-azido-2′,3′-dideoxythymdine]
Antagonism Volume, Result 1 (HIV-1IIIB): −67.8 nM^2 %, μM^2 % or nMμM %
Antagonism Volume, Result 2 (HIV-1IIIB): 0 nM^2 %, μM^2 % or nMμM %
Antagonism Volume, Result 3 (HIV-1IIIB): −0.77 nM^2 %, μM^2 % or nMμM %
Mean Antagonism Volume (n = 3) (HIV-1IIIB): −21.7 nM^2 %, μM^2 % or nMμM %
Mean Synergy Volume (n = 3) (HIV-1IIIB): 11.5 nM^2 %, μM^2 % or nMμM %
Synergy Volume, Result 1 (HIV-1IIIB): 5.01 nM^2 %, μM^2 % or nMμM %
Synergy Volume, Result 2 (HIV-1IIIB): 32.7 nM^2 %, μM^2 % or nMμM %
Synergy Volume, Result 3 (HIV-1IIIB): 0 nM^2 %, μM^2 % or nMμM %
pIC50 (HIV; [1]): 7.77
pIC50 (HIV; [2]): 5.02
pIC50 (HIV; [3]): 5.79
pIC50 (HIV; [4]): 7.77
pIC50 (HIV; [5]): < 4.60
pIC50 (HIV; [6]): 5.06
pIC50 (HIV; [7]): 7.92
pIC50 (HIV; [8]): 7.96
pIC50 (HIV; [9]): 7.96
pIC50 (HIV; [10]): 8.22
pIC50 (HIV; [11]): 5.59
pIC50 (HIV; [12]): 5.38
pIC50 (HIV; [13]): 7.85
pIC50 (HIV; [14]): 8.05
pIC50 (HIV; [15]): 7.85
pIC50 (HIV; [16]): 5.98
pIC50 (HIV; [17]): 7.15
pIC50 (HIV; [18]): 6.25
pIC50 (HIV; [19]): 6.75
pIC50 (HIV; [20]): 5.57
pIC50 (HIV; [21]): 5.57
pIC50 (HIV; [22]): 7.06
pIC50 (HIV; [23]): 6.97
pIC50 (HIV; [24]): 6.11
pIC50 (HIV; [25]): 6.72
pIC50 (HIV; [26]): 6.68
pIC50 (HIV; [27]): 8.22
pIC50 (HIV; [28]): 8.40
pIC50 (HIV; [29]): 8.40
